This is an account of results in US12637477B2, “Synthesis process of amide derivatives of hydroxypenicillanic acid” (priority 2020, dated 2026).

In this assay the test system is CHO-S cells. Kind of assay: Viable cell count of CHO-S cells after 24 hours incubation (anticancer activity). In kind it is cell-based, hamster. The protocol:
The two compounds, by means of a standard assay, were tested on mammalian (hamster) cancer cells to evaluate possible anticancer activity.
Compound (IIB) was used at concentrations of 25 μM and 50 μM, while Peny compound was tested at concentrations up to 400 μM.
Mammalian cancer cells were then incubated for 24 hours.
Precisely, CHO-S cells were cultured in 2 mL of DMEM (Dulbecco's Modified Eagle Medium) (10% FBS, 6% Glutamax) in a 24-well plate at a density of 200×10^3 cells/per well and subsequently incubated at 37° C. in a controlled atmosphere (5% CO2) under shaking. The following day, cells were counted by means of the Countess II instrument (Thermofisher Scientific) (an automated cell counter). They were then treated with Purymycin (positive control), Peny, (IIB) compounds, and in the absence of any product (negative control), at the concentrations shown in FIG. 37.
Cell counts were performed after 24 hours to determine the number of viable cells.

Structures are written as SMILES.

On to `CC(=O)OC[C@H]1O[C@@H](OCc2cn(CCCNC(=O)[C@@H]3N4C(=O)N[C@H](C(=O)O)[C@H]4SC3(C)C)nn2)[C@H](OC(C)=O)[C@@H](OC(C)=O)[C@@H]1OC(C)=O` [Compound (IIB), (3S, 7R, 7aR)-2,2-dimethyl-5-oxo-3-((3-(4-((((2R, 3R, 4S, 5R, 6R)-3,4,5-triacetoxy-6-(acetoxymethyl)tetrahydro-2H-pyran-2-yl)oxy)methyl)-1H-1,2,3-triazol-1-yl)propyl)carbamoyl)hexahydroimidazo[5,1-b]thiazole-7-carboxylic acid], for which the cytotoxicity at 50 µM (50 μM, read-out: reduction of viable cells) is about 50%. With `CC(=O)OC[C@@H]1OC(n2cc(COC(=O)[C@@H]3N4C(=O)[C@@H](NC(=O)OC(C)(C)C)[C@H]4SC3(C)C)nn2)[C@@H](OC(C)=O)[C@H](OC(C)=O)[C@H]1OC(C)=O` (some centres unmarked) [Penγ], for the setting “tested at concentrations up to 400 μM”, the anticancer effect entry was “not associated”.
